The target of the assay is T1, inducible NO-synthase (NO-synthase 2) (Homo sapiens, UniProt P35228).
T1 construct: positive control (induction of the enzyme): mixtures of interferon-(1000 U/ml) and of interleukin 1-(100 U/ml); endogenous in cells; 267(30), 21277-21280, 1992
Kind of assay: Inhibition of inducible NO-synthase (test of Heck et al.): nitrite/nitrate measured after stimulating NO-synthase 2 with interferon and interleukin 1. It is filed as cell-based. As to the method:
The activity of N,N′-bis(2-pyridyl)methyl-N,N′-bis(3,4,5-trimethoxybenzyl)ethylenediamine on inducible NO-synthase was evaluated in the test described by Heck et al., (J.B.C., Vol. 267, No. 30, 21277-21280, Oct. 25, 1992).
The object of this test is to show the reduction in the concentration of nitrate and nitrite, ultimately, after stimulating NO-synthase 2.
The following controls were introduced into the tests:
A: positive control (induction of the enzyme): mixtures of interferon-(1000 U/ml) and of interleukin 1-(100 U/ml);
To determine the activity of the test product, the amount of stable NO reaction products (nitrites and nitrates) is measured using the “nitric calorimetric assay” kit marketed by Boehringer under the reference 1756.28.
N,N′-bis(2-pyridyl)methyl-N,N′-bis(3,4,5-trimethoxybenzyl) ethylenediamine was tested at concentrations of 10 μM, 50 μM and 100 μM in ethanol.

T1 sequence (P35228 whole entry, species assumed): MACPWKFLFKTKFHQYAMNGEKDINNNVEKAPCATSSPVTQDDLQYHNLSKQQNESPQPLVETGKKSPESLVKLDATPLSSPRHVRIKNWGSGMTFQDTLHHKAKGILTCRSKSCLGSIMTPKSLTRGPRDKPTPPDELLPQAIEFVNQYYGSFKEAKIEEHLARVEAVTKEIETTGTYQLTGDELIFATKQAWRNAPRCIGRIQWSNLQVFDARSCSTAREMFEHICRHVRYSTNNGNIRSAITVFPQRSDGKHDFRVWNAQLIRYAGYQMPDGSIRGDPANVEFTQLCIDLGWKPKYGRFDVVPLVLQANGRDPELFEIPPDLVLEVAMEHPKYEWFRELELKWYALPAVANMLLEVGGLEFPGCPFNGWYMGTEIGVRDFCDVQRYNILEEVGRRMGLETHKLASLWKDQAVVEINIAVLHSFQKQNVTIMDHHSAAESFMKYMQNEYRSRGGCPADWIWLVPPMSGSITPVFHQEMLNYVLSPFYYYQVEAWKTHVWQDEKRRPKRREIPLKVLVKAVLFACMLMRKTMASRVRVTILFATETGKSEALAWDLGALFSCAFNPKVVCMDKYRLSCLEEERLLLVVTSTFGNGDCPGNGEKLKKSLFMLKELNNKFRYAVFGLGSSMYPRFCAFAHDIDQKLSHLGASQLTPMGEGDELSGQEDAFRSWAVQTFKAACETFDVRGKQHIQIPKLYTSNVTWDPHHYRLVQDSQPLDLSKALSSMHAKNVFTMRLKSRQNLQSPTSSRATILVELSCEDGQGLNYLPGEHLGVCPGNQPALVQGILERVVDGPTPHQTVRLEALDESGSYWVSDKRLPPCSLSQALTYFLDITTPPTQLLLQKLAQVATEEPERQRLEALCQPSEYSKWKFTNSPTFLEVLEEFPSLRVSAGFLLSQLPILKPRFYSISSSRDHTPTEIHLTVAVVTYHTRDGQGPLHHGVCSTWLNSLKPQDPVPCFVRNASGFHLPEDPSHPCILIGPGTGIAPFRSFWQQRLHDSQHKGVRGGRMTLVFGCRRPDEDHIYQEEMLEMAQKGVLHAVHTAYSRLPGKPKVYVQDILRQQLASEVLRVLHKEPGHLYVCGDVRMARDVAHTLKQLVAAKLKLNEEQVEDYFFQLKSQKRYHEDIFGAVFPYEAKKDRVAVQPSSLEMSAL

In general, inhibition refers to the share of the control response that was lost under treatment. Higher therefore signals strong suppression. Regarding `COc1cc(CN(CCN(Cc2cc(OC)c(OC)c(OC)c2)Cc2ccccn2)Cc2ccccn2)cc(OC)c1OC` [N,N′-bis(2-pyridyl)methyl-N,N′-bis(3,4,5-trimethoxybenzyl)ethylenediamine], the inhibition at 10 µM (10 μM in ethanol, nitrites and nitrates after induction with interferon (1000 U/ml) and interleukin 1 (100 U/ml)) is 18.8%. Testing at 50 µM (50 μM in ethanol, nitrites and nitrates after induction with interferon (1000 U/ml) and interleukin 1 (100 U/ml)) gave an inhibition of 48.3%. Where the note is “100 μM in ethanol, nitrites and nitrates after induction with interferon (1000 U/ml) and interleukin 1 (100 U/ml)”, this molecule showed an inhibition at 100 µM of 62%. Further, the “effect on inducible NO-synthase (in words)” value (conclusion from the test at 10-100 μM) was “has an inhibitory effect on inducible NO-synthase”.
